Source: patent US7718808B2, “Thiazole derivatives” (Kyowa Hakko Kirin Co., Ltd., priority 2003, dated 2010)

Row | Structure (SMILES) | melting point
1 | O=C(Nc1nc(-c2ccco2)c(C(=O)c2ccccc2)s1)c1ccc(=O)n(Cc2ccncc2)c1 [Compound 152, N-[5-Benzoyl-4-(2-furyl)thiazol-2-yl]-2-oxo-1-(pyridin-4-ylmethyl)-1,2-dihydropyridine-5-carboxamide] | 270 to 275 °C
2 | O=C(Nc1nc(-c2ccco2)c(C(=O)c2ccccc2)s1)c1ccnnc1 [Compound 153, N-[5-Benzoyl-4-(2-furyl)thiazol-2-yl]pyridazine-4-carboxamide] | 225 to 248 °C
3 | CC(=O)Nc1nc(-c2ccco2)c(C(=O)c2ccccn2)s1 [Compound 188, N-[4-(2-Furyl)-5-(pyridin-2-ylcarbonyl)thiazol-2-yl]acetamide] | 216 to 217 °C
4 | CCCC(=O)Nc1nc(-c2ccco2)c(C(=O)c2ccccn2)s1 [Compound 189, N-[4-(2-Furyl)-5-(pyridin-2-ylcarbonyl)thiazol-2-yl]butanamide] | 148 to 149 °C
5 | CC(C)(C)C(=O)Nc1nc(-c2ccco2)c(C(=O)c2ccccn2)s1 [Compound 190, N-[4-(2-Furyl)-5-(pyridin-2-ylcarbonyl)thiazol-2-yl]-2,2-dimethylpropanamide] | 186 to 187 °C
6 | CC1(C(=O)Nc2nc(-c3ccco3)c(C(=O)c3ccccn3)s2)CC1 [Compound 192, N-[4-(2-Furyl)-5-(pyridin-2-ylcarbonyl)thiazol-2-yl]-1-methylcyclopropanecarboxamide] | 195 to 196 °C
7 | O=C(c1ccccn1)c1sc(NC(=O)C2CCOCC2)nc1-c1ccco1 [Compound 194, N-[4-(2-Furyl)-5-(pyridin-2-ylcarbonyl)thiazol-2-yl]tetrahydropyran-4-carboxamide] | 234 to 235 °C
8 | O=C(c1ccccn1)c1sc(NC(=O)C2CCN(Cc3cccnc3)CC2)nc1-c1ccco1 [Compound 197, N-[4-(2-Furyl)-5-(pyridin-2-ylcarbonyl)thiazol-2-yl]-1-(pyridin-3-ylmethyl)piperidine-4-carboxamide] | 208 to 209 °C
9 | COc1cccc(C(=O)Nc2nc(-c3ccco3)c(C(=O)c3ccccn3)s2)c1 [Compound 201, N-[4-(2-Furyl)-5-(pyridin-2-ylcarbonyl)thiazol-2-yl]-3-methoxybenzamide] | 165 to 166 °C
10 | COc1ccc(C(=O)Nc2nc(-c3ccco3)c(C(=O)c3ccccn3)s2)cc1 [Compound 202, N-[4-(2-Furyl)-5-(pyridin-2-ylcarbonyl)thiazol-2-yl]-4-methoxybenzamide] | 187 to 188 °C
11 | COc1ccc(C(=O)Nc2nc(-c3ccco3)c(C(=O)c3ccccn3)s2)cc1OC [Compound 203, N-[4-(2-Furyl)-5-(pyridin-2-ylcarbonyl)thiazol-2-yl]-3,4-dimethoxybenzamide] | 169 to 170 °C
12 | COc1cc(C(=O)Nc2nc(-c3ccco3)c(C(=O)c3ccccn3)s2)cc(OC)c1OC [Compound 204, N-[4-(2-Furyl)-5-(pyridin-2-ylcarbonyl)thiazol-2-yl]-3,4,5-trimethoxybenzamide] | 172 to 180 °C (dec.)
13 | CC(=O)c1cccc(C(=O)Nc2nc(-c3ccco3)c(C(=O)c3ccccn3)s2)c1 [Compound 207, 3-Acetyl-N-[4-(2-furyl)-5-(pyridin-2-ylcarbonyl)thiazol-2-yl]benzamide] | 168 to 169 °C
14 | CC(=O)c1ccc(C(=O)Nc2nc(-c3ccco3)c(C(=O)c3ccccn3)s2)cc1 [Compound 208, 4-Acetyl-N-[4-(2-furyl)-5-(pyridin-2-ylcarbonyl)thiazol-2-yl]benzamide] | 204 to 206 °C
15 | O=C(Nc1nc(-c2ccco2)c(C(=O)c2ccccn2)s1)c1ccc2c(c1)OCO2 [Compound 209, N-[4-(2-Furyl)-5-(pyridin-2-ylcarbonyl)thiazol-2-yl]-3,4-methylenedioxybenzamide] | 235 to 236 °C
16 | Cc1cc(C(=O)Nc2nc(-c3ccco3)c(C(=O)c3ccccn3)s2)ccn1 [Compound 212, N-[4-(2-Furyl)-5-(pyridin-2-ylcarbonyl)thiazol-2-yl]-2-methylpyridine-4-carboxamide] | 187 to 188 °C
17 | O=C(Nc1nc(-c2ccco2)c(C(=O)c2ccccn2)s1)c1ccncc1Cl [Compound 215, 3-Chloro-N-[4-(2-furyl)-5-(pyridin-2-ylcarbonyl)thiazol-2-yl]pyridine-4-carboxamide] | 206 to 207 °C
18 | COCCN(C)c1cc(C(=O)Nc2nc(-c3ccco3)c(C(=O)c3ccccn3)s2)ccn1 [Compound 217, N-[4-(2-Furyl)-5-(pyridin-2-ylcarbonyl)thiazol-2-yl]-2-[N-(2-methoxyethyl)-N-methylamino]pyridine-4-carboxamide] | 114 to 117 °C
19 | O=C(Nc1nc(-c2ccco2)c(C(=O)c2ccccn2)s1)c1ccnc(N2CCOCC2)c1 [Compound 219, N-[4-(2-Furyl)-5-(pyridin-2-ylcarbonyl)thiazol-2-yl]-2-morpholinopyridine-4-carboxamide] | 216 to 217 °C
20 | Cc1ncccc1C(=O)Nc1nc(-c2ccco2)c(C(=O)c2ccccn2)s1 [Compound 221, N-[4-(2-Furyl)-5-(pyridin-2-ylcarbonyl)thiazol-2-yl]-2-methylpyridine-3-carboxamide] | 186 to 187 °C
21 | COc1ccc(C(=O)Nc2nc(-c3ccco3)c(C(=O)c3ccccn3)s2)c(OC)n1 [Compound 224, N-[4-(2-Furyl)-5-(pyridin-2-ylcarbonyl)thiazol-2-yl]-2,6-dimethoxypyridine-3-carboxamide] | 201 to 202 °C
22 | O=C(Nc1nc(-c2ccco2)c(C(=O)c2ccccn2)s1)c1cncc(Br)c1 [Compound 226, 5-Bromo-N-[4-(2-furyl)-5-(pyridin-2-ylcarbonyl)thiazol-2-yl]pyridine-3-carboxamide] | 259 to 262 °C
23 | O=C(Nc1nc(-c2ccco2)c(C(=O)c2ccccn2)s1)c1ccnnc1 [Compound 227, N-[4-(2-Furyl)-5-(pyridin-2-ylcarbonyl)thiazol-2-yl]pyridazine-4-carboxamide] | 270 to 274 °C
24 | O=C(Nc1nc(-c2ccco2)c(C(=O)c2ccccn2)s1)c1cc[nH]c(=O)c1 [Compound 231, N-[4-(2-Furyl)-5-(pyridin-2-ylcarbonyl)thiazol-2-yl]-2-oxo-1,2-dihydropyridine-4-carboxamide] | 170 to 180 °C (dec.)
25 | O=C(Nc1nc(-c2ccco2)c(C(=O)c2ccccn2)s1)c1ccn(Cc2ccccc2)c(=O)c1 [Compound 232, 1-Benzyl-N-[4-(2-furyl)-5-(pyridin-2-ylcarbonyl)thiazol-2-yl]-2-oxo-1,2-dihydropyridine-4-carboxamide] | 269 to 270 °C

Next, values leading:

Row | melting point | Structure (SMILES)
26 | 165 to 170 °C | O=C(c1ccccn1)c1sc(NC(=O)C2CCC2)nc1-c1ccco1 [Compound 193, N-[4-(2-Furyl)-5-(pyridin-2-ylcarbonyl)thiazol-2-yl]cyclobutanecarboxamide]
27 | 240 to 241 °C | O=C(c1ccccn1)c1sc(NC(=O)C2CCN(Cc3ccncc3)CC2)nc1-c1ccco1 [Compound 198, N-[4-(2-Furyl)-5-(pyridin-2-ylcarbonyl)thiazol-2-yl]-1-(pyridin-4-ylmethyl)piperidine-4-carboxamide]
28 | 165 to 171 °C | O=C(Nc1nc(-c2ccco2)c(C(=O)c2ccccn2)s1)c1ccccc1 [Compound 199, N-[4-(2-Furyl)-5-(pyridin-2-ylcarbonyl)thiazol-2-yl]benzamide]
29 | 205 to 208 °C | COc1ccccc1C(=O)Nc1nc(-c2ccco2)c(C(=O)c2ccccn2)s1 [Compound 200, N-[4-(2-Furyl)-5-(pyridin-2-ylcarbonyl)thiazol-2-yl]-2-methoxybenzamide]
30 | 234 to 237 °C | N#Cc1cccc(C(=O)Nc2nc(-c3ccco3)c(C(=O)c3ccccn3)s2)c1 [Compound 205, 3-Cyano-N-[4-(2-furyl)-5-(pyridin-2-ylcarbonyl)thiazol-2-yl]benzamide]
31 | 189 to 191 °C | O=C(Nc1nc(-c2ccco2)c(C(=O)c2ccccn2)s1)c1ccc2c(c1)OCCO2 [Compound 210, N-[4-(2-Furyl)-5-(pyridin-2-ylcarbonyl)thiazol-2-yl]-1,4-benzodioxane-6-carboxamide]
32 | 103 to 104 °C | O=C(c1ccccn1)c1sc(NC(=O)C2COc3ccccc3O2)nc1-c1ccco1 (stereo not drawn) [Compound 211, N-[4-(2-Furyl)-5-(pyridin-2-ylcarbonyl)thiazol-2-yl]-1,4-benzodioxane-2-carboxamide]
33 | 219 to 225 °C | O=C(Nc1nc(-c2ccco2)c(C(=O)c2ccccn2)s1)c1ccnc(Cl)c1 [Compound 214, 2-Chloro-N-[4-(2-furyl)-5-(pyridin-2-ylcarbonyl)thiazol-2-yl]pyridine-4-carboxamide]
34 | 254 to 258 °C | O=C(Nc1nc(-c2ccco2)c(C(=O)c2ccccn2)s1)c1cc(Cl)nc(Cl)c1 [Compound 216, 2,6-Dichloro-N-[4-(2-furyl)-5-(pyridin-2-ylcarbonyl)thiazol-2-yl]pyridine-4-carboxamide]
35 | 136 to 141 °C | O=C(Nc1nc(-c2ccco2)c(C(=O)c2ccccn2)s1)c1ccnc(N2CCCCC2)c1 [Compound 218, N-[4-(2-Furyl)-5-(pyridin-2-ylcarbonyl)thiazol-2-yl]-2-piperidinopyridine-4-carboxamide]
36 | 210 to 215 °C | Cc1ccc(C(=O)Nc2nc(-c3ccco3)c(C(=O)c3ccccn3)s2)cn1 [Compound 222, N-[4-(2-Furyl)-5-(pyridin-2-ylcarbonyl)thiazol-2-yl]-2-methylpyridine-5-carboxamide]
37 | 245 to 248 °C | Cc1cncc(C(=O)Nc2nc(-c3ccco3)c(C(=O)c3ccccn3)s2)c1 [Compound 223, N-[4-(2-Furyl)-5-(pyridine-2-ylcarbonyl)thiazol-2-yl]-5-methylpyridine-3-carboxamide]
38 | 150 to 154 °C | O=C(Nc1nc(-c2ccco2)c(C(=O)c2ccccn2)s1)c1cnc(C2CC2)nc1 [Compound 229, 2-Cyclopropyl-N-[4-(2-furyl)-5-(pyridin-2-ylcarbonyl)thiazol-2-yl]pyrimidine-5-carboxamide]
39 | 208 to 209 °C | Cc1cnc(C(=O)Nc2nc(-c3ccco3)c(C(=O)c3ccccn3)s2)cn1 [Compound 230, N-[4-(2-Furyl)-5-(pyridine-2-ylcarbonyl)thiazol-2-yl]-5-methylpyrazine-2-carboxamide]
